Measurements as given in patent publication US12441689B2 (EpiVario, Inc., priority 2019, dated 2025).

target: human ACSS2 protein (Homo sapiens (Human), UniProt Q9NR19); assay: ACSS2 Cell-Free Activity Assay (Cell-Free IC50); conditions: 10 nM human ACSS2 protein, 90 minutes at 37 C, pyrophosphatase-coupled, Biomol Green absorbance at 620 nm; read-out: ACSS2 Biochemical IC50
Excerpt: ACSS2 Cell-Free Activity Assay (Cell-Free IC50)

human ACSS2 protein, sequence (Q9NR19 whole entry): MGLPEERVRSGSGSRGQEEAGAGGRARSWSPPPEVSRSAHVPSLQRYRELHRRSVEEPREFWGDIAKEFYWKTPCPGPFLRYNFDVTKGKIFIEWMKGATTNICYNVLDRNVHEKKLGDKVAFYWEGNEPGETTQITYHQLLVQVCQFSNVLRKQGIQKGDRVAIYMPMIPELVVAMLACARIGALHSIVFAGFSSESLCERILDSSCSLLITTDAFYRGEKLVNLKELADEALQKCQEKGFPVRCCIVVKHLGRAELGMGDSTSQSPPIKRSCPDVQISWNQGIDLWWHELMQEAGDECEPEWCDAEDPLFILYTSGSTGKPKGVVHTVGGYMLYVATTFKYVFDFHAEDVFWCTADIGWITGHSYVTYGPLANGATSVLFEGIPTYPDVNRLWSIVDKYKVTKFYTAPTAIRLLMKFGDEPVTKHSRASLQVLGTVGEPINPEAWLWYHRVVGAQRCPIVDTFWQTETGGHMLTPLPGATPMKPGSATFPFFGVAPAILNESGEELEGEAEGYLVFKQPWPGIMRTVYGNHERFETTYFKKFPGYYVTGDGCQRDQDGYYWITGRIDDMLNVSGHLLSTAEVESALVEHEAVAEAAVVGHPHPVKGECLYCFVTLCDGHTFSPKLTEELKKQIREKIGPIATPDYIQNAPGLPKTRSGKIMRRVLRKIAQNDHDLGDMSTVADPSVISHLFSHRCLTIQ

Row | Compound | IC50 [nM]
1 | CCC(F)(F)c1cccc(NC(=O)c2c(C)oc(-c3ccc(OC)c(-c4ncccc4C)c3)[n+]2[O-])c1 [Compound 251, 4-((3-(1,1-difluoropropyl)phenyl)carbamoyl)-2-(4-methoxy-3-(3-methylpyridin-2-yl)phenyl)-5-methyloxazole 3-oxide] | > 100
2 | CCC(F)(F)c1cccc(NC(=O)c2c(C)nn(-c3ccc(OC)cc3)[n+]2[O-])c1 [Compound 253, 5-((3-(1,1-difluoropropyl)phenyl)carbamoyl)-2-(4-methoxyphenyl)-4-methyl-2H-1,2,3-triazole 1-oxide] | > 100
3 | CCC(F)(F)c1cccc(NC(=O)c2cc(C)nc(-c3ccc(OC(F)F)cn3)c2)c1 [Compound 257, 5'-(difluoromethoxy)-N-(3-(1,1-difluoropropyl)phenyl)-6-methyl-[2,2′-bipyridine]-4-carboxamide] | > 100
4 | Cc1oc(-c2ccc(OC(F)F)c(-c3ccccn3)c2)nc1C(=O)Nc1cccc(C(C)(F)F)c1 [Compound 258, N-(3-(1,1-difluoroethyl)phenyl)-2-(4-(difluoromethoxy)-3-(pyridin-2-yl)phenyl)-5-methyloxazole-4-carboxamide] | > 100
5 | N-(3-(1,1-difluoroethyl)phenyl)-2-(6-(difluoromethoxy)-[1,1′-biphenyl]-3-yl)-4-methyloxazole-5-carboxamide [Compound 115] | > 100

Results, then the compound that gave them:

Row | IC50 [nM] | Compound
6 | > 100 | CCC(F)(F)c1cccc(NC(=O)c2nc(-c3ccc(OC(F)F)c(-c4ccccn4)c3)oc2C)c1 [Compound 259, 2-(4-(difluoromethoxy)-3-(pyridin-2-yl)phenyl)-N-(3-(1,1-difluoropropyl)phenyl)-5-methyloxazole-4-carboxamide]
7 | > 100 | CCC(F)(F)c1cccc(NC(=O)c2nc(-c3ccc(OC(F)F)c(-c4ccccc4)n3)[nH]c2C)c1 [Compound 260, 2-(5-(difluoromethoxy)-6-phenylpyridin-2-yl)-N-(3-(1,1-difluoropropyl)phenyl)-5-methyl-1 H-imidazole-4-carboxamide]
8 | 1 to 100 | CCC(F)(F)c1cccc(NC(=O)c2c(C)[nH]c3ccc(OC)cc3c2=O)c1 [Compound 272, N-(3-(1,1-difluoropropyl)phenyl)-6-methoxy-2-methyl-4-oxo-1,4-dihydroquinoline-3-carboxamide]
9 | 1 to 100 | CCC(F)(F)c1cccc(NC(=O)c2c(C)[nH]c3cc(OC)ccc3c2=O)c1 [Compound 273, N-(3-(1,1-difluoropropyl)phenyl)-7-methoxy-2-methyl-4-oxo-1,4-dihydroquinoline-3-carboxamide]
10 | > 100 | CCC(F)(F)c1cccc(NC(=O)C2CCN(Cc3ccc(OC)cc3)C(c3ccc(OC)cc3)C2O)c1 (stereo not shown) [Compound 275, N-(3-(1,1-difluoropropyl)phenyl)-3-hydroxy-1-(4-methoxybenzyl)-2-(4-methoxyphenyl)piperidine-4-carboxamide]
